Here are results for four molecules from patent publication US20260014125A1, “BICYCLIC-TYPE MAT2A INHIBITOR AND USE THEREOF” (HAIHE BIOPHARMA CO., LTD., priority 2022, published 2026).

Usually IC50 stands for the concentration at which inhibition is half-maximal. A high value points to lower potency.

Structures are written as SMILES.

Assay [1] addresses MAT2A (Homo sapiens (Human), UniProt P31153). The assay is described as follows: Biochemical test: inhibition of MAT2A enzyme activity (phosphate detection, OD620). The note with it: MAT2A his-tag; 150 minutes enzymatic reaction. In short, it runs like this:
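His-tagged human MAT2A was preincubated 15 min with compound (10 µM top, 3-fold, 10 points, duplicate), then reacted with ATP and L-methionine for 150 min. Released phosphate was measured at OD620 after Biomol stop reagent. IC50 was fitted from inhibition relative to no-enzyme and DMSO controls.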

For assay [2], the system named is KP-4 cells. Nature of the assay: Human pancreatic cancer KP-4 cell activity inhibition test (CellTiter-Glo). It is filed as cell-based. The conditions noted are these: Homo sapiens, 120 h, 5 days. In outline: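 KP-4 cells (500/well, IMDM with 10% FBS) were plated overnight, then exposed to ten compound concentrations down to 0.5 nM for 5 days at 37 °C and 5% CO2. Viability was read by CellTiter-Glo ATP content. Inhibition was normalised to no-compound and cell-free wells, and IC50 was obtained by curve fitting.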
A general note: ATP-based viability assays read luminescence as a measure of living cells.

In assay [3] the test system is human B-cell lymphoma DOHH-2 cell subcutaneous xenograft tumor. The assay is described as follows: In vivo anti-tumor efficacy in the DOHH-2 cell subcutaneous xenograft tumor model. Also noted: species or system mice. The conditions noted are these: DOHH-2 xenograft; for T/C (%) / TGI (%): intragastric, female CB-17 SCID mice. Here is the method: The in vivo anti-tumor efficacy of compound 13 and AG-270 (MAT2A inhibitor,
were evaluated using a human B-cell lymphoma DOHH-2 cell subcutaneous xenograft tumor model.
The female CB-17 SCID mice used were purchased from Beijing Vital River Laboratory Animal Technology Co., Ltd. Tumor cell culture and subcutaneous inoculation: Human B-cell lymphoma DOHH-2 cells (DSMZ) were cultured in vitro in RPMI-1640 medium containing 10% fetal bovine serum and 1% […], and incubated in a 5% CO2 incubator at 37° C. When the required number of cells was reached, the cells were collected, and counted. 0.2 mL (10×10^6) of DOHH-2 cells (with matrix gel added, volume ratio of 1:1) were subcutaneously inoculated into the right back of each mouse. When the average tumor volume reached 100-150 mm^3, random grouping would begin, with 5 mice in each group. The administration group (compound 13 or compound AG-270) was performed intragastric administration twice a day (dosage shown in Table 3), while the negative control group was performed intragastric administration using the same volume of blank solvent per day.
The experimental indicator was to examine whether tumor growth was inhibited, delayed, or cured. The tumor diameter was measured twice a week using a vernier caliper. The formula for calculating tumor volume was: V=0.5a×b^2, wherein a and b indicated the long and short diameters of tumors, respectively.
The anti-tumor efficacy of the compound was evaluated using TGI (%) or relative tumor proliferation rate T/C (%).
TGI (%) reflects the tumor growth inhibition rate. Calculation of TGI (%). TGI (%)=[(1−(average tumor volume at the end of administration in the treatment group-average tumor volume at the beginning of administration in the treatment group))/(average tumor volume at the end of treatment in the negative control group-average tumor volume at the beginning of treatment in the negative control group)]×100%.
Relative tumor proliferation rate TIC (%): The calculation formula was as follows: T/C %=TRTV/CRTV×100% (TRTV: administration group RTV: CRTV: negative control group RTV). The calculation formula of the relative tumor volume (RTV) was RTV=Vt/V0, wherein V0 was the average tumor volume measured at the time of group administration (i.e. d0), Vt was the average tumor volume measured at a certain measurement, and TRTV and CRTV took the same day's data.

Sequence of MAT2A (P31153 whole entry): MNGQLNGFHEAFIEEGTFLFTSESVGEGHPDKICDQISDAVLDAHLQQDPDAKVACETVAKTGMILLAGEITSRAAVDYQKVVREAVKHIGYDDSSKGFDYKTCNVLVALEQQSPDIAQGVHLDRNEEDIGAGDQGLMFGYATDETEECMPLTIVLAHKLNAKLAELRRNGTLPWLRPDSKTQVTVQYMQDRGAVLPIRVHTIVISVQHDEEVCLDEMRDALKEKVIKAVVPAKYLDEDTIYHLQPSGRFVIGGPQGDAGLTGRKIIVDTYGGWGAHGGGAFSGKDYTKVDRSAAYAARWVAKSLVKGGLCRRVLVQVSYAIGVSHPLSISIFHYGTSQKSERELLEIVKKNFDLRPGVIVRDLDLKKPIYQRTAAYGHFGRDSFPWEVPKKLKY

In the case of `CCOc1c(-c2ccc(Cl)cc2)c(=O)n(-c2ccc3nn(C)cc3c2)c2[nH]ncc12` [Compound 13], the half-inhibitory concentration (IC50) was determined as 15.1 nM in assay [1] and 7.4 nM in assay [2]. Besides, the “T/C (%)” value in assay [3] (5 mg/kg, BID) amounted to 35.54%; in assay [3] (10 mg/kg, BID) it was 26.46%; in assay [3] (20 mg/kg, BID), 15.98%. In addition, the “TGI (%)” value in assay [3] (5 mg/kg, BID) is 68.82%; in assay [3] (10 mg/kg, BID) it was 78.48%; in assay [3] (20 mg/kg, BID), 89.67%. Further, the “in vivo efficacy, in words” value in assay [3] (5, 10, 20 mg/kg BID) is “dose-dependent in vivo efficacy”.
Consider `COc1ccc(-c2c(Nc3ccccn3)[nH]c3c(C4=CCCCC4)c(-c4ccccc4)nn3c2=O)cc1` [AG-270, reference compound], for which, in assay [3] (80 mg/kg, QD), the “T/C (%)” value is 22.32% and the “TGI (%)” value was 82.92%.
On to `Cn1cc2cc(-n3c(=O)c(-c4ccc(C(F)(F)F)nc4)c(NCC4CC4)c4cn[nH]c43)ccc2n1` [Compound 108], for which the half-maximal inhibitory concentration (IC50) in assay [1] turned out to be 17.3 nM; in assay [2], 66.7 nM.
As for `CCOc1c(-c2ccc(C)cc2)c(=O)n(-c2ccc3nn(C)cc3c2)c2[nH]ncc12` [Compound 117], the IC50 in assay [1] was 17.2 nM; in assay [2] it was 23.7 nM.
